Laboratory results: ChEMBL document CHEMBL3217708, “2-Anilinonicotinyl linked 1,3,4-oxadiazole derivatives: Synthesis, antitumour activity and inhibition of tubulin polymerization” (2011)

What was measured:
Tubulin (Bos taurus) = Tubulin (Bos taurus) (UniProt Q6B856+Q862L2+Q862F3); experiment: Inhibition of bovine brain tubulin polymerization at 3 uM measured for 1 hr by fluorimetric assay
A549 [1] = experiment: Growth inhibition of human A549 cells after 48 hrs by sulforhodamine B assay; format: functional; settings: A549, 48 h
A549 [2] = experiment: Cell cycle arrest in human A549 cells assessed as accumulation at G1 phase at 1 uM after 48 hrs by propidium iodide staining based flow cytometry (reference value: 78%); format: functional
A549 [3] = experiment: Cell cycle arrest in human A549 cells assessed as accumulation at S phase at 1 uM after 48 hrs by propidium iodide staining based flow cytometry (reference value: 10%); format: functional
A549 [4] = experiment: Inhibition of alpha-tubulin polymerization in human A549 cells assessed as ratio of soluble to polymerized tubulin at 1 uM after 24 hrs by western blot analysis; format: functional
A549 [5] = experiment: Induction of apoptosis in human A549 cells assessed as caspase-9 activation at 1 uM after 24 hrs by fluorimetry relative to control; format: functional
A549 [6] = experiment: Cell cycle arrest in human A549 cells assessed as accumulation at G2/M phase at 1 uM after 48 hrs by propidium iodide staining based flow cytometry (reference value: 10%); format: functional
MDA-MB-231 = experiment: Growth inhibition of human MDA-MB-231 cells after 48 hrs by sulforhodamine B assay; format: functional; settings: MDA-MB-231, 48 h
DU-145 = experiment: Growth inhibition of human DU145 cells after 48 hrs by sulforhodamine B assay; format: functional; settings: DU-145, 48 h
A549 [7] = experiment: Induction of apoptosis in human A549 cells assessed as caspase-3 activation at 1 uM after 24 hrs by fluorimetry relative to control; format: functional
HeLa = experiment: Growth inhibition of human HeLa cells after 48 hrs by sulforhodamine B assay; format: functional
HepG2 = experiment: Growth inhibition of human HepG2 cells after 48 hrs by sulforhodamine B assay; format: functional; settings: HepG2, 48 h

| inhibition (Tubulin (Bos taurus)) [%] | GI50 (A549 [1]) [nM] | GI50 (MDA-MB-231) [nM] | GI50 (DU-145) [nM] | GI50 (HeLa) [nM] | GI50 (HepG2) [nM] | Structure (SMILES) | Activity (A549 [2]) [%] | Activity (A549 [3]) [%] | Ratio (A549 [4]) | fold change (FC) (A549 [5]) | Activity (A549 [6]) [%] | fold change (FC) (A549 [7]) |
| --- | --- | --- | --- | --- | --- | --- | --- | --- | --- | --- | --- | --- |
| 38 | – | – | – | – | – | COc1cc(Nc2ncccc2-c2nnc(Nc3ccc(Cl)cc3)o2)cc(OC)c1OC | – | – | – | – | – | – |
| 41 | – | – | – | – | – | COc1cc(Nc2nnc(-c3cccnc3Nc3cc(OC)c(OC)c(OC)c3)o2)cc(OC)c1OC | – | – | – | – | – | – |
| 70 | 210 | 150 | 190 | 750 | 760 | COC(=O)Nc1nc2cc(C(=O)c3cccs3)ccc2[nH]1 [NOCODAZOLE] | 55 | 25 | 6 | 4 | 18 | 4 |
